Experimental data taken from patent publication US20060078961A1, “Systems and methods for rapidly changing the solution environment around sensors” (priority 2002, published 2006).

System: PC-12 cell
Settings: flow rate 3.24 mm/s, scanning speed 250 μm/s
Source text: The flow rate was 3.24 mm/s and the cell scanning speed was 250 μm/s.
The width of each channel is 100 μm, the thickness is 50 μm, and the interchannel spacing is 25 μm. The procedure used for fabricating the microchannels and for patch clamping are identical to that described in Example 2 (see above). The patch clamped cell used was a PC-12 cell, which was placed between 10 to 20 micrometers away from the outlets of the microchannels. Channels 1, 3, 5 and 7 were filled with PBS buffer, while channels 2, 4 and 6 were filled with acetylcholine. The flow rate of the fluid streams was 6.8 mm/s.
The channel structure and experimental setup used in Example 3 can be used to carry out dose-response measurements, in which the concentrations of the ligands in each of the ligand streams differ by predetermined amounts. […] In this 7-channel structure, channels 1, 3, 5 and 7 were filled with PBS buffer, whereas channels 2, 4, and 6 were filled with 1 μM, 12 μM, and 200 μM nicotine, respectively. The flow rate used was 3.24 mm/s and the cell-scanning speed was 250 μm/s. The patch-clamped cell was placed between 10 to 20 μm away from the outlet of the microchannel.

Structure (SMILES): CN1CCCC1c1cccnc1 (stereo not drawn) [nicotine]
- Whole-cell current response (1 μM nicotine): barely discernible
- Whole-cell current peak (12 μM nicotine): detected with good signal-to-noise ratio
- Current peak at 200 μM relative to peak for 12 μM (200 μM vs 12 μM nicotine): 15 to 20 times
